Test [1] has as its system IL-12/23 p40. The test is described as follows: q-PCR for p40 mRNA in peptidoglycan-activated CD11c+ BMDCs. The class given is cell-based, mouse. The following applies: 20 μg/ml for 1 hour, then 10 μg/ml peptidoglycan for 2, 3 and 4 hours, normalized to GAPDH (FIG. 6). The method, then:
Generation of bone-marrow derived dendritic cells (BMDC's): Bone-marrow was flushed out with cold RPMI-1640 medium from mice femur and tibia. A cell suspension was prepared and erythrocytes were removed using red blood cell (RBC) lysis buffer (Beit Haemek, Israel). Cells were washed in phosphate buffer saline (PBS) (Beit Haemek, Israel), and incubated at 4° C. for 15 minutes in buffer containing PBS and 0.5% bovine serum albumin (BSA) with mouse B220 and CD90 microbeads (Miltenyi biotech, Bergisch Gladbach, Germany). Cells were then washed, resuspended in the same buffer, and depleted from B and T cells on a Midi-Macs separation unit through a LD or LS column (Miltenyi Biotech). The depleted cells were then counted, washed and seeded (10^6/ml) in medium containing RPMI-1640 medium, L-glutamine, β-mercaptoethanol, 10% fetal calf serum (FCS), antibiotics (penicillin, streptomycin) and 20 ng/ml of mouse granulocyte-macrophage colony-stimulating factor (GM-CSF) (Peprotech, Rehovot, Israel). […]
Preparation of RNA, cDNA and Quantitative Real Time PCR (Q-PCR): RNA was prepared from cells using an RNeasy mini kit (Qiagen, Valencia, Calif.). […] All real time quantitative PCR (q-PCR) reactions were performed using LightCycler Taqman master (Roche Diagnostics, Mannheim, Germany) and the LightCycler (Roche). […]

A further test relates to human platelets. The test is described as follows: Platelet aggregation assay. The class given is cell-based. The following applies: human platelet-rich plasma, 5 minutes; CI-302 in escalating concentrations of up to 1 mM; PAF 0.125-0.25 μM (FIGS. 2-4). The method, then: Platelet aggregation assay: Platelet-rich plasma was prepared from citrated whole human blood by centrifugation (200 g for 20 minutes). The final platelet concentration was adjusted to 2×10^8 platelets/ml with autologous plasma. CI-302 and PAF dissolved in PBS were added to induce platelet activation while the platelet sample was stirred at 1,000 rpm at 37° C. Aggregation was recorded for 5 minutes using an AggRAM 4-channel aggregometer (AggRAM aggregation Remote Analyzer Module; Helena Laboratories).

Test [2] concerns IL-12/23 p40. The test is described as follows: IL-12/23 p40 production by peptidoglycan-activated BMDCs (ELISA). The class given is cell-based, mouse. The following applies: BMDCs activated with 10 μg/ml peptidoglycan. The method, then: Generation of bone-marrow derived dendritic cells (BMDC's): Bone-marrow was flushed out with cold RPMI-1640 medium from mice femur and tibia. A cell suspension was prepared and erythrocytes were removed using red blood cell (RBC) lysis buffer (Beit Haemek, Israel). Cells were washed in phosphate buffer saline (PBS) (Beit Haemek, Israel), and incubated at 4° C. for 15 minutes in buffer containing PBS and 0.5% bovine serum albumin (BSA) with mouse B220 and CD90 microbeads (Miltenyi biotech, Bergisch Gladbach, Germany). Cells were then washed, resuspended in the same buffer, and depleted from B and T cells on a Midi-Macs separation unit through a LD or LS column (Miltenyi Biotech). The depleted cells were then counted, washed and seeded (10^6/ml) in medium containing RPMI-1640 medium, L-glutamine, β-mercaptoethanol, 10% fetal calf serum (FCS), antibiotics (penicillin, streptomycin) and 20 ng/ml of mouse granulocyte-macrophage colony-stimulating factor (GM-CSF) (Peprotech, Rehovot, Israel). Medium was replaced every other day and cells were used for subsequent experiments on days 5-6 post culturing.
Cytokine analysis: For the detection of cytokine production, supernatants from 24-hour post-treatment BMDCs were tested with Duoset ELISA kits for mouse IL12/23 p40 (R&D systems, Minneapolis, Minn.). […]
For orientation: ELISA stands for enzyme-linked immunosorbent assay.

The subject of another test is MOG induced EAE. The test is described as follows: MOG peptide-induced experimental autoimmune encephalomyelitis (EAE), clinical score. The class given is in vivo, mice. The following applies: from 5 days before to 5 days after MOG 35-55 immunization (FIG. 7). The method, then:
Mice: Female 8-10 week old […] mice were purchased from Harlan Laboratories (Israel). EAE (experimental autoimmune encephalomyelitis) induction: Mice were immunized subcutaneously with an emulsion containing 1.5 mg/ml MOG peptide 35-55 ([…]) (Sigma-Aldrich, Rehovot, Israel) and 2.5 mg/ml complete Freund's adjuvant (CFA), 100 μl in each flank. Pertussis toxin (500 ng in 500 μl PBS) was administered intra-peritoneally immediately and 48 hours after immunization. For prevention of EAE, CI-302 or PBS was given orally once a day for 10 consecutive days beginning 5 days before immunization. The severity of EAE was assessed utilizing clinical scores determined as follows: 0=normal, 1=limp tail, 2=weakness of hind limbs, 3=hind leg paralysis, 4=hind and fore leg paralysis, 5=moribund or death

The subject of test [3] is pro-inflammatory chemokines and cytokines in spinal cords. The test is described as follows: q-PCR for pro-inflammatory chemokines and cytokines in spinal cords of EAE mice. To be noted: 0.4 mg/kg oral, 28 days after immunization. It is filed as in vivo. The method, then: Preparation of RNA, cDNA and Quantitative Real Time PCR (Q-PCR): RNA was prepared from cells using an RNeasy mini kit (Qiagen, Valencia, Calif.). For cDNA preparation, 1 μg of RNA was combined with oligo-dT for 10 minutes at 70° C., and 1^St strand buffer, dithiothreitol (DTT), deoxynucleotides (dNTP) and super-script reverse transcriptase (SS-II) (Invitrogen, Carlsbad, Calif.) were then added for 50 minutes at 42° C. The reaction was ended by incubation for an additional 15 minutes at 70° C. All real time quantitative PCR (q-PCR) reactions were performed using LightCycler Taqman master (Roche Diagnostics, Mannheim, Germany) and the LightCycler (Roche). For tissue mRNA expression, total RNA was extracted from spinal cord using the RNeasy lipid tissue mini kit RNA. Ready sets of probe with primers for q-PCR were purchased from Applied Biosystems (Foster City, Calif.).
EAE (experimental autoimmune encephalomyelitis) induction: Mice were immunized subcutaneously with an emulsion containing 1.5 mg/ml MOG peptide 35-55 ([…]) (Sigma-Aldrich, Rehovot, Israel) and 2.5 mg/ml complete Freund's adjuvant (CFA), 100 μl in each flank. Pertussis toxin (500 ng in 500 μl PBS) was administered intra-peritoneally immediately and 48 hours after immunization. For prevention of EAE, CI-302 or PBS was given orally once a day for 10 consecutive days beginning 5 days before immunization.

The subject of test [4] is collagen-induced arthritis. The test is described as follows: Collagen-induced arthritis (CIA), arthritis score. To be noted: 0.4 mg/kg by gavage daily from day 22 to day 39, CIA mouse model (FIG. 9). It is filed as in vivo, DBA/1 male mice. The method, then:
Collagen-induced arthritis (CIA) induction: DBA/1 male mice were immunized to induce arthritis by a collagen injection containing complete Freund's adjuvant (CFA) in the base of the tail (day 0) and a booster shot in the flank (day 21). Mice were followed for arthritis development until day 39. Administration by gavage of the tested compounds and control substances began on day 22 and was carried out on a daily basis (6 times per week).
The severity of arthritis was assessed as follows:
Each paw is scored on a scale of 0-4 for the degree of swelling, erythema, and deformity of the joints (maximum score 16 per animal) as follows [Brackertz et al., 1977]:
0=normal 1=slight erythema and/or swelling of the ankle or wrist or toes 2=moderate erythema and/or swelling of the ankle or wrist 3=severe erythema and/or swelling of the ankle or wrist (or moderate in combination of all toes) 4=complete erythema and swelling of toes or fingers and ankle or wrist, and inability to bend the ankle or wrist

In test [5] the test system is tyrosine phosphorylation in peritoneal macrophages. The test is described as follows: Western blot of phosphotyrosine in peritoneal macrophages. The class given is cell-based. To be noted: thioglycolate-stimulated peritoneal macrophages, 20 μg/ml, 10 minutes (FIG. 10). The method, then:
Western blot: Thioglycolate-stimulated peritoneal macrophages were treated for 10 minutes with 20 μg/ml of CI-302. 20 μg/ml of phosphatidylcholine or solvent served as negative controls, whereas CI-201 served as a positive control. Whole cell lysates were resolved by SDS-PAGE on 10% Tris/HCl denaturing gel, transferred to nitrocellulose membranes and blotted with anti-phosphotyrosine antibody. Blotting with anti-ERK1/2 antibody served as a loading control.
On the technique in general: Immunoblotting shows a protein as a band on a membrane.

In the case of “L-a-phosphatidylcholine [PC, reference compound]”, in the test with IL-12/23 p40 [1], the “p40 mRNA expression” value is “little or no effect”.

Consider `CCCCCCCCCCCCCCCCOC[C@H](COP(=O)([O-])OCC[N+](C)(C)C)OC(C)=O` [PAF, 1-hexadecyl-2-acetoyl-sn-glycero-3-phosphocholine, reference compound], for which the platelet aggregation entry in the test on human platelets is given as “substantial platelet aggregation”.

`CCCCCCCCCCCCCCCCOC[C@H](COP(=O)([O-])OCC[N+](C)(C)C)OC(=O)CCC` [CI-302, 1-hexadecyl-2-butyroyl-sn-glycero-3-phosphocholine]: in the test on human platelets, the platelet aggregation entry was “no platelet aggregation was observed”. For the same compound, the “maximal reduction of p40 production” value in the test with IL-12/23 p40 [2] (1 hour pre-incubation, supernatants 24 hours, highest CI-302 concentration tested (FIG. 5A)) was found to be 45%. In addition, the “production of p40 by activated BMDCs” value in the test on IL-12/23 p40 [2] (escalating CI-302 concentrations, ELISA at 24 hours (FIG. 5A)) is reported as “significantly inhibited production of p40 by activated BMDCs in a dose-dependent manner”. Moreover, the “p40 mRNA expression” value in the test on IL-12/23 p40 [1] is recorded as “inhibited p40 mRNA expression considerably”. Besides, the results for the “protection against EAE development (mean clinical score)” value with MOG induced EAE (0.04 mg/kg orally once a day) and in the test on MOG induced EAE (0.4 mg/kg orally once a day) were “noticeable though milder protection” and “close to complete protection”, respectively. Further, the “p40 gene transcription in spinal cord” value in test [3] (relative to PBS-treated group (FIG. 8A)) was “reduced”. For the same compound, the “p35 gene transcription in spinal cord” value in test [3] (relative to PBS-treated group (FIG. 8B)) is listed as “reduced”. Further, the “CCL2 (MCP-1) transcription in spinal cord” value in test [3] (relative to PBS-treated group (FIG. 8C)) was “reduced”. In addition, the “IFN-γ transcription in spinal cord” value in test [3] (relative to PBS-treated group (FIG. 8D)) is listed as “reduced”. Besides, the “TNF-α transcription in spinal cord” value in test [3] (relative to PBS-treated group (FIG. 8E)) is on record as “reduced”. Moreover, the “CD4 mRNA levels in spinal cord” value in test [3] (relative to control mice (FIG. 8F)) is reported as “considerably lower”. Also, the “arthritis severity (mean score)” value in test [4] was “decreased arthritis severity throughout the study period”. Also, the level of phosphotyrosine result in test [5] is “strongly reduced the level of phosphotyrosine”.

These data come from US20110230450A1, “PLATELET-ACTIVATING FACTOR (PAF) ANALOGS AND USES THEREOF” (Vascular Biogenics Lts, priority 2007, published 2011).
